Data published in patent US4428952A, “Substituted pyrrolo[2,1-b]quinazolines and pyrido[2,1-b]quinazolines useful for the treatment of or the prevention of gastrointestinal ulcers” (Farmitalia Carlo Erba S.p.A., priority 1981, dated 1984).

Assays:
[1] = acute toxicity (LD50), single administration of increasing doses; details: in vivo, po, mouse, per os, measured on the seventh day of treatment, read-out: approximate acute toxicity (LD50)
Source text: In view of their high therapeutic index the compounds of the invention can be safely used in medicine. For example, the approximate acute toxicity (LD50) of the compounds 3-benzylidene-1,2,3,9-tetrahydro-9-oxo-pyrrolo[2,1-b]quinazoline-7-carboxylic acid; 3-benzylidene-1,2,3,9-tetrahydro-9-oxo-pyrrolo[2,1-b]quinazoline-6-carboxylic acid; 6-benzylidene-6,7,8,9-tetrahydro-11-oxo-11H-pyrido[2,1-b]quinazoline-2-carboxylic acid; 6-benzylidene-6,7,8,9-tetrahydro-11-oxo-11H-pyrido[2,1-b]quinazoline-3-carboxylic acid in mouse, determined with single administration of increasing doses and measured on the seventh day of treatment is per os higher than 800 mg/kg.

[2] = system: syndrome induced by oxotremorine; test: antagonism against syndrome induced by oxotremorine in mice (Leszkovszky and Tardos); anticholinergic activity; type: in vivo, mouse; details: 100 mg/kg, oral administration
Source text: Considering that many anti-ulcer agents display, as does atropine, a remarkable but undesired anti-cholinergic activity, the compounds of the invention have been assessed for their antagonism against syndrome induced by oxotremorine in mice, according to the method described by Leszkovszky G. P. and Tardos L. (Europ. J.Pharmac. 1971, 15, 310).

restraint ulcers = test: inhibition of restraint ulcers in rats (Bonfils et al.); type: in vivo, rat (Sprague-Dawley male); details: po; rat, p.o. one hour before immobilization; approximate values; lesions counted 4 hours after immobilization; read-out: Anti-ulcerogenic activity ED50 p.o.
Description: The anti-ulcerogenic activity of the compounds of the invention is shown, e.g., by the fact that they are active in the test of the inhibition of restraint ulcers in rats, according to the method of Bonfils et al., (Therapie, 1960, 5, 1096; Jap. J. Pharmac. 1945, 43, 5).
The tested compound was administered per os (p.o.) one hour before the immobilization. Six Sprague-Dawley male rats (100-120 g) fasted 24 hours were used for the experiment: a square flexible small-mesh wire netting was used for the immobilization and 4 hours after the immobilization the rats were sacrificed, their stomachs were removed and the lesions counted under a dissecting microscope.

gastric secretion = test: inhibition of gastric secretion in rats (H. Shay et al.); type: in vivo; details: Rattus norvegicus, intraduodenal administration, approximate value, read-out: antisecretory activity ED50

Row | SMILES | LD50 at 168 h [1] [mg/kg] | antagonism against syndrome induced by oxotremorine [2] | ED50 (restraint ulcers) [mg/kg] | ED50 (gastric secretion) [mg/kg]
1 | O=C(O)c1ccc2c(=O)n3c(nc2c1)C(=Cc1ccccc1)CC3 [3-benzylidene-1,2,3,9-tetrahydro-9-oxo-pyrrolo[2,1-b]quinazoline-6-carboxylic acid] | > 800 | inactive | ~10 | –
2 | O=C(O)c1ccc2nc3n(c(=O)c2c1)CCC3=Cc1ccccc1 [3-benzylidene-1,2,3,9-tetrahydro-9-oxo-pyrrolo[2,1-b]quinazoline-7-carboxylic acid] | > 800 | inactive | ~8 | –
3 | O=C(O)c1ccc2c(=O)n3c(nc2c1)C(=Cc1ccccc1)CCC3 [6-benzylidene-6,7,8,9-tetrahydro-11-oxo-11H-pyrido/2,1-b/quinazoline-3-carboxylic acid] | > 800 | inactive | ~8 | ~15
4 | O=C(O)c1ccc2nc3n(c(=O)c2c1)CCCC3=Cc1ccccc1 [6-benzylidene-6,7,8,9-tetrahydro-11-oxo-11H-pyrido[2,1-b]quinazoline-2-carboxylic acid] | > 800 | inactive | ~9 | –
